Molecular target: Rho kinase (fused protein of bovine Rho kinase catalyst region and glutathione S-transferase) (Bos taurus, UniProt Q28021)
Assay: Rho kinase inhibitory activity (phosphorylation of S6 231–239 substrate, γ32P-ATP)
Format: biochemical
Conditions: concentration inhibiting substrate phosphorylation by 50%
Method: This permits the substrate to be labeled with the radioisotope.
Thereafter, the substrate was adsorbed to a filter paper. ATP was washed away with a phosphoric acid solution, and the amount of the phosphorylated substrate was then measured with a liquid scintillation counter.

Sequence of Rho kinase (fused protein of bovine Rho kinase catalyst region and glutathione S-transferase) (Q28021 92-354 limits assumed): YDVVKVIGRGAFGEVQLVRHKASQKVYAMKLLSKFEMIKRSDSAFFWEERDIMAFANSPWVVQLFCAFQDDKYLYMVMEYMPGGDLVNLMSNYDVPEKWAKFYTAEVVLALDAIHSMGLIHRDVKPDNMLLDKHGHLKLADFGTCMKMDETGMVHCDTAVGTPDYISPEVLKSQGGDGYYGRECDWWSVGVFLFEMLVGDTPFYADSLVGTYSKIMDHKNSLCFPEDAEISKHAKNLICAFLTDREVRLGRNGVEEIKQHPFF

SMILES	IC50 [nM]
COc1ccc(CN2CCCC(Nc3ccc4[nH]ncc4c3)C2)cc1 (stereo not drawn) [Example 166, N-(1H-5-Indazolyl)-N-[1-(4-methoxybenzyl)-3-piperidyl]amine]	16
O=C(CC1CCCCC1)Nc1ccncc1 [Example 31, N1-(4-Pyridyl)-2-cyclohexylacetamide]	5290
COc1cc(/C=C/C(=O)Nc2ccc3[nH]ncc3c2)ccc1O [Example 40, N1-(1H-5-Indazolyl)-(E)-3-(4-hydroxy-3-methoxyphenyl)-2-propeneamide]	231
Fc1cccc(CN2CCC(Nc3ccc4[nH]ncc4c3)CC2)c1 [Example 117, N-[1-(3-Fluorobenzyl)-4-piperidyl]-N-(1H-5-indazolyl)amine]	317
c1cncc(CN2CCC(Nc3ccc4[nH]ncc4c3)CC2)c1 [Example 132, N-(1H-5-Indazolyl)-N-[1-(3-pyridylmethyl)-4-piperidyl]amine]	603
Fc1ccc(CN2CCC(Nc3ccc4[nH]ncc4c3)CC2)cc1 [Example 137, N-[1-(4-Fluorobenzyl)-4-piperidyl]-N-(1H-5-indazolyl)amine]	478
Nc1cccc(NC(=O)Nc2ccc3c(c2)C(=O)NC3=O)c1 [Example 79]	8570
Clc1cccc(CN2CCC(Nc3ccc4[nH]ncc4c3)CC2)c1 [Example 135, N-[1-(3-Chlorobenzyl)-4-piperidyl]-N-(1H-5-indazolyl)amine]	285
O=C(NCC1CCCCC1)Nc1ccc2[nH]ncc2c1 [Example 105, N-Cyclohexylmethyl-N′-(1H-5-indazolyl)urea]	390
O=C(NCc1c(F)c(F)c(F)c(F)c1F)Nc1ccncc1 [Example 97, N-(2,3,4,5,6-Pentafluorobenzyl)-N′-(4-pyridyl)urea]	2100
Clc1ccccc1CN1CCCC(Nc2ccc3[nH]ncc3c2)C1 (stereo not drawn) [Example 161, N-[1-(2-Chlorobenzyl)-3-piperidyl]-N-(1H-5-indazolyl)amine]	13
O=C(NCc1c(F)ccc(F)c1F)Nc1ccc2[nH]ncc2c1 [Example 110, N-(1H-5-Indazolyl)-N′-(2,3,6-trifluorobenzyl)urea]	195
O=C(CNc1ccc(O)cc1)Nc1ccc2[nH]ncc2c1 [Example 50, N1-(1H-5-Indazolyl)-2-(4-hydroxyanilino)acetamide]	326
c1cc2[nH]ncc2cc1NC1CCCCC1 [Example 129, N-Cyclohexyl-N-(1H-5-indazolyl)amine]	670
O=C(Nc1ccc2c(c1)C(=O)NC2=O)Nc1ccc2[nH]ccc2c1 [Example 70, N-(1,3-Dioxo-2,3-dihydro-1H-5-isoindolyl)-N′-(1H-5-indolyl)urea]	400
COc1ccc(/C=C/C(=O)Nc2ccc3[nH]ncc3c2)cc1OC [Example 42, N1-(1H-5-Indazolyl)-(E)-3-(3,4-dimethoxyphenyl)-2-propeneamide]	605
Clc1ccc(CN2CCCC(Nc3ccc4[nH]ncc4c3)C2)cc1 (stereo not drawn) [Example 163, N-[1-(4-Chlorobenzyl)-3-piperidyl]-N-(1H-5-indazolyl)amine]	11
O=C(Nc1ccncc1)Nc1ccc(Br)cc1F [Example 60, N-(4-Bromo-2-fluorophenyl)-N′-(4-pyridyl)urea]	11000
COc1cccc(CN2CCC(Nc3ccc4[nH]ncc4c3)CC2)c1 [Example 119, N-(1H-5-Indazolyl)-N-[1-(3-methoxybenzyl)-4-piperidyl]amine]	383
O=C(Cc1ccc([N+](=O)[O-])cc1[N+](=O)[O-])Nc1ccc2[nH]ncc2c1 [Example 39, N1-(1H-5-Indazolyl)-2-(2,4-dinitrophenyl)acetamide]	122
O=C(COc1c(Cl)cc(F)cc1Cl)Nc1ccc2[nH]ncc2c1 [Example 15, N1-(1H-5-Indazolyl)-2-(2,6-dichloro-4-fluorophenoxy)acetamide]	460
CCCNC(=O)Nc1ccc2c(c1)C(=O)NC2=O [Example 74, N-(1,3-Dioxo-2,3-dihydro-1H-5-isoindolyl)-N′-propylurea]	8300
O=C(NCc1c(F)cc(F)cc1F)Nc1ccc2c(c1)C(=O)NC2=O [Example 99, N-(1,3-Dioxo-2,3-dihydro-1H-5-isoindolyl)-N′-(2,4,6-trifluorobenzyl)urea]	240
COC(=O)c1ccc(CN2CCC(Nc3ccc4[nH]ncc4c3)CC2)cc1 [Example 148, Methyl 4-{[4-(1H-5-indazolylamino)piperidino]methyl}benzoate]	166
CCC(=O)c1cc(F)c(OCC(=O)Nc2ccncc2)c(F)c1 [Example 29, N1-(4-Pyridyl)-2-(2,6-difluoro-4-propionyl-phenoxy)acetamiden]	8590
Cc1ccc(CN2CCC(Nc3ccc4[nH]ncc4c3)CC2)cc1 [Example 139, N-(1H-5-Indazolyl)-N-[1-(4-methylbenzyl)-4-piperidyl]amine]	250
O=C(CC1CCCCC1)Nc1ccc2[nH]ncc2c1 [Example 34, N1-(1H-5-Indazoyl)-1-cyclohexylacetamide]	870

SMILES	IC50 [nM]
COc1ccc(/C=C/C(=O)Nc2ccc3[nH]ncc3c2)cc1O [Example 41, N1-(1H-5-Indazolyl)-(E)-3-(3-hydroxy-4-methoxyphenyl)-2-propeneamide]	224
O=C(Cc1ccc(O)c(O)c1)Nc1ccc2[nH]ncc2c1 [Example 44, N1-(1H-5-Indazolyl)-2-(3,4-dihydroxyphenyl)acetamide]	394
COc1cc(CN2CCC(Nc3ccc4[nH]ncc4c3)CC2)cc(OC)c1 [Example 143, N-[1-(3,5-Dimethoxybenzyl)-4-piperidyl]-N-(1H-5-indazolyl)amine]	399
O=[N+]([O-])c1ccc(CN2CCC(Nc3ccc4[nH]ncc4c3)CC2)cc1 [Example 141, N-(1H-5-Indazolyl)-N-[1-(4-nitrobenzyl)-4-piperidyl]amine]	661
CCOC(=O)c1cc(Cl)c(OCC(=O)Nc2ccncc2)c(Cl)c1 [Example 26, Ethyl 3,5-dichloro-4-[2-oxo-2-(4-pyridylamino)ethoxy]benzoate]	1030
O=C(Nc1ccncc1)Nc1c(F)cccc1C(F)(F)F [Example 58]	13500
O=C(Nc1ccncc1)Nc1c(Cl)cccc1Cl [Example 9, N-(2,6-Dichlorophenyl)-N′-(4-pyridyl)urea]	850
O=C(CNCc1ccccc1)Nc1ccc2[nH]ncc2c1 [Example 173, N1-(1H-5-Indazolyl)-2-(benzylamino)acetamide]	446
O=C(NCc1cccc([N+](=O)[O-])c1)Nc1ccncc1 [Example 111, N-(3-Nitrobenzyl)-N′-(4-pyridyl)urea]	1770
O=C(NCc1c(F)cc(F)cc1F)Nc1ccncc1 [Example 77, N-(4-Pyridyl)-N′-(2,4,6-trifluorobenzyl)urea]	4070
O=C(/C=C/c1ccccc1O)Nc1ccc2[nH]ncc2c1 [Example 35, N1-(1H-5-Indazolyl)-(E)-3-(2-hydroxyphenyl)-2-propeneamide]	1280
O=C(NCc1ccccc1)Nc1ccc2[nH]ncc2c1 [Example 84, N-Benzyl-N′-(1H-5-indazolyl)urea]	260
c1ccc(CCN2CCC(Nc3ccc4[nH]ncc4c3)CC2)cc1 [Example 130, N-(1H-5-Indazolyl)-N-(1-phenethyl-4-piperidyl)amine]	457
O=C(NCc1ccccc1Cl)Nc1ccncc1 [Example 94, N-(2-Chlorobenzyl)-N′-(4-pyridyl)urea]	7200
Brc1ccc(CN2CCCC(Nc3ccc4[nH]ncc4c3)C2)cc1 (stereo not drawn) [Example 165, N-[1-(4-Bromobenzyl)-3-piperidyl]-N-(1H-5-indazolyl)amine]	11
Cc1ccc(CN2CCC(Nc3ccc4[nH]ncc4c3)CC2)cc1C [Example 115, N-[1-(3,4-Dimethylbenzyl)-4-piperidyl]-N-(1H-5-indazolyl)amine]	372
O=C(Nc1ccc2c(c1)C(=O)NC2=O)Nc1c[nH]c2ccccc12 [Example 69, N-(1,3-Dioxo-2,3-dihydro-1H-5-isoindolyl)-N′-(1H-3-indolyl)urea]	2270
COc1cc(CN2CCC(Nc3ccc4[nH]ncc4c3)C2)cc(OC)c1 (stereo not drawn) [Example 160, N-[1-(3,5-Dimethoxybenzyl)tetrahydro-1H-3-pyrrolyl]-N-(1H-5-indazolyl)amine]	1
Cc1ccc(CN2CCCC(Nc3ccc4[nH]ncc4c3)C2)cc1 (stereo not drawn) [Example 167, N-(1H-5-Indazolyl)-N-[1-(4-methylbenzyl)-3-piperidyl]amine]	9
Clc1ccccc1CN1CCC(Nc2ccc3[nH]ncc3c2)C1 (stereo not drawn) [Example 151, N-[1-(2-Chlorobenzyl)tetrahydro-1H-3-pyrrolyl]-N-(1H-5-indazolyl)amine]	45
CC(=O)n1ncc2cc(NC3CCN(Cc4ccccc4)CC3)ccc21 [Example 176, 1-{5-[(1-Benzyl-4-piperidyl)amino]-1H-5-indazolyl}-1-ethanone]	4
Clc1cccc(CN2CCCC(Nc3ccc4[nH]ncc4c3)C2)c1 (stereo not drawn) [Example 162, N-[1-(3-Chlorobenzyl)-3-piperidyl]-N-(1H-5-indazolyl)amine]	19
c1ccc(CNC2CCC(Nc3ccc4[nH]ncc4c3)CC2)cc1 (mixture of isomers) [Example 171, N1-Benzyl-N4-(1H-5-indazolyl)-1,4-cyclohexanediamine]	90
O=C(Nc1ccccc1)Nc1ccc2c(c1)C(=O)NC2=O [Example 72, N1-(1,3-Dioxo-2,3-dihydro-1H-5-isoindolyl)-N′-phenylurea]	900
O=C(Cc1ccc2c(c1)OCO2)Nc1ccc2[nH]ncc2c1 [Example 45, N1-(1H-5-Indazolyl)-2-(1,3-benzodioxol-5-yl)acetamide]	153
CC(C)c1ccc(CN2CCC(Nc3ccc4[nH]ncc4c3)CC2)cc1 [Example 122, N-(1H-5-Indazolyl)-N-[1-(4-isopropylbenzyl)-4-piperidyl]amine]	309
c1ccc(NC2CCC(Nc3ccc4[nH]ncc4c3)CC2)cc1 (stereo not drawn) [Example 172, N1-(1H-5-Indazolyl)-N4-phenyl-1,4-cyclohexanediamine]	265

Reference: patent publication US7217722B2 (Kirin Beer Kabushiki Kaisha, priority 2000, dated 2007)
